These results are taken from paper PMC7375803, “TBR-760, a Dopamine-Somatostatin Compound, Arrests Growth of Aggressive Nonfunctioning Pituitary Adenomas in Mice” (Endocrinology, 2020).

The term EC50 denotes the concentration that produces a half-maximal response. The AUC(0-inf) is the area under the concentration-time curve extrapolated to infinity. A higher AUC(0-inf) goes with more exposure. Usually Cmax stands for the peak of the concentration-time curve. What is called Tmax is the time from dosing to the highest level. In general, half-life refers to the time needed for the level to fall by half in the phase considered.

The target in one data set is SSTR1. The arrangement: method as in earlier work. The note with it: read-out: binding affinity for SSTR1; cited from earlier work.
The next data set addresses SSTR4. The arrangement: method as in earlier work. Conditions: read-out: binding affinity for SSTR4; cited from earlier work.
In data set [1] the target is T1, human somatostatin type 2 receptor (SSTR2) (Homo sapiens, UniProt P30874). Description: SSTR2 agonist activity, cAMP. The class given is cell-based. The note with it: internal Tiburio data. The procedure: Table 1. Receptor binding affinity and agonist activity at human dopamine type 2 and somatostatin type 2 | column: SSTR2 agonist activity cAMP, EC50 nM
T1 sequence (P30874 whole entry): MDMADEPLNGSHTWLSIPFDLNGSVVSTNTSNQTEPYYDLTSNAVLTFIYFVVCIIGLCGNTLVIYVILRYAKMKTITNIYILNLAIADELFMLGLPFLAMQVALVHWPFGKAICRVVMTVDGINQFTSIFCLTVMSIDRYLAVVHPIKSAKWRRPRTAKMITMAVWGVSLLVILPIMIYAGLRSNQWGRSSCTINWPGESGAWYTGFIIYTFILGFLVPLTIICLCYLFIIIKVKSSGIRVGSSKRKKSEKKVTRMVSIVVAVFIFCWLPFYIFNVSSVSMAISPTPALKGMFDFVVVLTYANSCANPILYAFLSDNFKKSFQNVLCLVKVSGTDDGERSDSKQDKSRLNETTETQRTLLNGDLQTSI
The target in data set [2] is T2, human dopamine type 2 receptor (D2R) (Homo sapiens, UniProt P14416). In words: D2R receptor binding affinity. The note with it: internal Tiburio data. The source says:
Table 1. Receptor binding affinity and agonist activity at human dopamine type 2 and somatostatin type 2 | column: D2R binding, Ki nM

Data set [3] can be described thus: Subcutaneous pharmacokinetics, plasma by HPLC-MS/MS. The class given is in vivo. The note with it: mouse, 4 mg/kg sc, POMC KO mice, n = 4. The procedure: To study and compare the pharmacokinetic behavior of TBR-760, the DA analogue BIM-53097 and the SST analogue BIM-23023 solutions with appropriate concentrations were prepared as described earlier and mice were injected subcutaneously at time 0 with a dose of 4 mg/kg. Blood samples were collected at 15 and 30 minutes, and 1, 2, 4, 6, 8 and 24 hours after injection, and processed to obtain plasma. The determination of TBR-760, BIM-23023, or BIM-53097 was based on 100 μL plasma volume and was carried out by high-pressure liquid chromatography tandem mass spectrometry (HPLC-MS/MS) after protein precipitation with acetonitrile and subsequent solid-phase extraction. HPLC-MS/MS was performed on an AB SCIEX API 4000 LC-MS/MS with electrospray ionization operated in multiple-reaction monitoring mode for the analysis (Waters Corporation). Pharmacokinetic parameters were calculated by noncompartmental analyses using WinNonLin (version 5.2).

The target of data set [4] is T2, human dopamine type 2 receptor (D2R). Description: D2R agonist activity, cAMP. The class given is cell-based. The note with it: internal Tiburio data. On the procedure:
Table 1. Receptor binding affinity and agonist activity at human dopamine type 2 and somatostatin type 2 | column: D2R agonist activity cAMP, EC50 nM

Data set [5] addresses T1, human somatostatin type 2 receptor (SSTR2). In words: SSTR2 receptor binding affinity. Conditions: internal Tiburio data. The text has this: Table 1. Receptor binding affinity and agonist activity at human dopamine type 2 and somatostatin type 2 | column: SSTR2 binding, Ki nM
The subject of data set [6] is NFPAs in heterozygous POMC KO mice. In words: Study 2: TBR-760 vs individual DA and SST agonists on pituitary tumor growth. It is filed as in vivo, mouse. The text has this: (§1) Wild-type mice (3 male, 3 female) at age 6 months were scanned by MRI to determine average normal pituitary size. Heterozygous POMC KO mice were screened using MRI starting at average age 6.5 months (range, 5.5-9.5 months). These screening scans served to select animals for the study once reaching the baseline tumor volume of 10 mm^3 and to ensure reasonably homogenous groups. Most animals developed tumors within an average of 1.5 months after their first scan and at that point were randomly assigned to experimental groups. Two studies were conducted, the first comparing several doses of TBR-760 vs vehicle, and a second study comparing a fully effective dose of TBR-760 vs the molar equivalent and the 10× molar equivalent (based on the dose of TBR-760) of a pure SST agonist (BIM-23023), a pure DA agonist (BIM-53097), and the combination of the two. The concentration of the DA agonist was doubled to reflect the 2:1 ratio of DA:SST moieties present in TBR-760.
(§2) All groups were composed of 3 males and 3 females, with the exception of the vehicle- and TBR-760-treated groups (n = 8, 4 males/4 females) of the second study, which were maintained for survival analysis as described later. Once entered into the study, all mice received MRI scans for baseline, followed by scans at 2 weeks, 1 month, and 2 months after the baseline scan. Once tumor volume reached 10 mm^3 in the heterozygous POMC KO mice, the mice were treated by daily subcutaneous injection, with each injection given at the same approximate time of day. The mice were euthanized 8 weeks after start of treatment (ie, after the last scan), and pituitary tissue was collected, weighed, and flash-frozen, with the exception of the TBR-760 and vehicle-treated groups in the second study, which were maintained for survival analysis.
(§3) All studies were conducted on a Bruker 7T/210 mm Biospec system (Bruker) at the Duke Center for In Vivo Microscopy. The initial screening scans, conducted at age 6 months in wild-type mice, and average age 6.5 months (range, 5.5-9.5 months) in heterozygous POMC KO mice, were fast scans with scan times of 4 minutes (rapid acquisition with refocused echoes [RARE], repetition time [TR] = 1 second, echo time [TE] = 50 ms; 100 μm × 100 μm × 0.4 mm). Images were analyzed in ImageJ ([36]). Treatment monitoring MRI scans were carried out at 2 weeks, 1 month, and 2 months after start of treatment. For all monitoring scans, parameters were 40-minute scan time (RARE; TR = 5 seconds, TE = 50 ms; 100 μm × 100 μm × 0.3 mm). All scans included complete sectional scans of the pituitary, which were used to calculate tumor volume. MR images were preprocessed using bias field correction to account for the sensitivity profile of the receive coil, thus enhancing the tumor contrast. A trained analyst then manually segmented the tumor on each slice of the MRI. Volume of the tumor was then calculated by multiplying the area of the segmentation by the slice thickness for each slice of the image.
To compare the ability of TBR-760 to arrest aggressive pituitary tumor growth in the POMC KO mouse model vs its individual SST or DA components, either alone or in combination, heterozygous POMC KO mice were again randomly assigned to treatment groups when they presented with tumors approximately 10 mm^3 in size as determined by MRI. […]

The test system of data set [7] is cultured human NFPA cells. The arrangement: method as in PMID 18509006. Conditions: in vitro; cited from earlier work.
The test system of data set [8] is NFPAs in heterozygous POMC KO mice. In words: Study 1: TBR-760 dose comparison on pituitary tumor growth (MRI volume, tumor weight). The class given is in vivo, mouse. Conditions: mean ± SEM; for tumor volume after 8 weeks of treatment: vehicle 72.5 ± 5.9; for tumor weight after 8 weeks of treatment: vehicle 36 ± 7.4.
Text: as §1, §2, §3
At that time, treatment was initiated with daily subcutaneous injections of either vehicle or 0.125, 1.25, or 12.5 mg/kg of TBR-760 for 8 weeks. […] The dramatic difference in tumor growth between vehicle- and TBR-760–treated mice was further confirmed by visual comparison and measurement of weights of pituitaries on death of the mice (Fig. 7B and 7C).

The test system is the same in data set [9]. Description: Survival analysis of tumor-bearing mice. It is filed as in vivo, mouse. Conditions: TBR-760 1 mg/kg/day, at euthanasia; vehicle 45.76 ± 6.28. The source says: In the second study, the survival of TBR-760–treated mice was examined and compared with vehicle-treated mice. After the initial 8-week treatment period was complete, vehicle-treated mice were paired with TBR-760–treated mice, and treatment continued as before. When a vehicle-treated mouse died, its TBR-760-treated mouse partner continued to receive treatment for an additional 8 weeks before being euthanized. On death or euthanasia, pituitaries were collected, weighed, and flash-frozen.
Statistical analysis was performed using PRISM8 (GraphPad 2018). An ANOVA was performed followed by post hoc analysis with Dunnett’s multiple comparisons test. Results are expressed as mean ± SEM. P less than .05 was considered statistically significant. Survival analysis was performed using PRISM8 using the Gehan-Breslow-Wilcoxon test to compare the survival curves.

The next data set concerns residual NFPAs. On the set-up: method as in PMID 30540568. Conditions: after 24 months, cited from earlier work.
The target of data set [10] is T1, human somatostatin type 2 receptor (SSTR2). Conditions: read-out: SSTR2 agonist activity cAMP, EC50; cited from earlier work.

Each structure is given as a SMILES string. Values joined by “and” are separate entries in the source; they are usually repeats but may differ in a detail not shown here. Identical values can stand only once. Like-named read-outs stand apart in the source and are kept apart here.

T2 sequence (P14416 whole entry): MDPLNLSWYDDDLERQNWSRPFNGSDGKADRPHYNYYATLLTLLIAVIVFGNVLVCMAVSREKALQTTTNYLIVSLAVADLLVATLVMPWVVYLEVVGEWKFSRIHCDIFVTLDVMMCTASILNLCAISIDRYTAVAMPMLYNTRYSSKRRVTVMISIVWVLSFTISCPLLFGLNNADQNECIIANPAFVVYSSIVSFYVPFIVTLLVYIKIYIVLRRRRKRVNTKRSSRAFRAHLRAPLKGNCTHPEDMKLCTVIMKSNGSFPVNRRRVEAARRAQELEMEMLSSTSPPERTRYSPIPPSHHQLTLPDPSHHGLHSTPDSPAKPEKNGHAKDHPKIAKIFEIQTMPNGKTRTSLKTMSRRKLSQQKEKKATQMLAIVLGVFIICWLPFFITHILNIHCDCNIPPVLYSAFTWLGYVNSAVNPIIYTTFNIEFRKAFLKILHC

For the compound `CCCN1C[C@H](CSCC(=O)NCCCC[C@@H](NC(=O)CSC[C@@H]2C[C@@H]3c4cccc5[nH]cc(c45)C[C@H]3N(CCC)C2)C(=O)N[C@H]2CSSC[C@@H](C(=O)N[C@H](C(N)=O)[C@@H](C)O)NC(=O)[C@H](CC)NC(=O)[C@H](CCCCN)NC(=O)[C@@H](Cc3c[nH]c4ccccc34)NC(=O)[C@H](Cc3ccc(O)cc3)NC2=O)C[C@@H]2c3cccc4[nH]cc(c34)C[C@H]21` [TBR-760], the Ki on SSTR1 is 843 nM; on SSTR4, over 1000 nM; in data set [2] it was 12.1 nM; in data set [5], 0.01 nM. For the same compound, the results for the EC50 in [1] and in data set [4] were 1.22 nM and 0.064 nM, respectively. This compound also displayed an AUC(0-inf) in [3] of 1880 ng·h/mL. Also, the peak level in data set [3] (Cmax) was 354 ng/mL. Further, the Tmax in [3] amounted to 2 h. The same compound had a half-life in [3] of 2.56 h. Moreover, the “tumor volume after 8 weeks of treatment” value in [6] (1 mg/kg/day sc, 8 weeks, mean ± SEM, vehicle 54.6 ± 10.6) is recorded as 8.5 ± 1.3 mm^3; in [8] (0.125 mg/kg daily sc), 16.5 ± 2.6 mm^3; in [8] (1.25 mg/kg daily sc), 10.9 ± 1.1 mm^3; in data set [8] (12.5 mg/kg daily sc), 12.3 ± 1.0 mm^3. Also, in data set [6] (TBR-760 1 mg/kg/day sc), the “proportion of treated mice with tumor shrinkage” value was found to be 20%. Besides, in data set [6] (TBR-760 1 mg/kg/day sc, 1 mg/kg/day), the “mean tumor volume reduction in mice whose tumors shrank” value is 44.7% and 45%. In addition, the “proportion of NFPAs examined with significant inhibition of cell proliferation” value in data set [7] is listed as “approximately 60%”. In addition, the results for the “tumor weight after 8 weeks of treatment” value in [8] (0.125 mg/kg daily sc), in data set [8] (1.25 mg/kg daily sc) and in [8] (12.5 mg/kg daily sc) were 5.4 ± 0.67 mg, 5.0 ± 0.61 mg and 4.8 ± 0.61 mg, respectively. Also, the final tumor weight in data set [9] was determined as 5.42 ± 0.52 mg.

Turning to `C=CCN1C[C@H](C(=O)N(CCCN(C)C)C(=O)NCC)C[C@@H]2c3cccc4[nH]cc(c34)C[C@H]21` [Cabergoline], the “patients with significant tumor shrinkage” value in the data set on residual NFPAs (nonintervention group 10.5%) is on record as 28.8%. The “patients with tumor growth” value in the data set with residual NFPAs (nonintervention group 15.8%) is 5.1%. In addition, in the data set on residual NFPAs (nonintervention group 73.7%), the “patients with stabilization of tumor” value is 66.1%. This compound registered a Ki in data set [2] of 0.8 nM. Also, the EC50 in data set [4] was determined as 0.026 nM.

With `CC[C@@H]1NC(=O)[C@H](CCCCN)NC(=O)[C@@H](Cc2c[nH]c3ccccc23)NC(=O)[C@H](Cc2ccc(O)cc2)NC(=O)[C@@H](NC(=O)[C@H](N)Cc2ccccc2)CSSC[C@@H](C(=O)N[C@H](C(N)=O)[C@@H](C)O)NC1=O` [BIM-23023, reference compound], the Ki at SSTR1 was over 1000 nM. The Ki at SSTR4 was over 1000 nM. In addition, in data set [3], the AUC(0-inf) came out at 2860 ng·h/mL, the Cmax worked out at 2300 ng/mL, the Tmax is 0.25 h and the half-life is 0.59 h. The “pituitary weight vs untreated, tumor-bearing controls” value in [6] (after 8 weeks of treatment) is given as “not significantly different”. Moreover, the “effect on tumor growth vs vehicle” value in [6] (either dose (1 or 10 mg/kg) daily sc, 8 weeks) is on record as “failed to show significant effects on tumor growth”. The EC50 in data set [10] is 0.14 nM.
